Test: xn = mol fraction of the nth substance listed
Conditions: Liquid, Vibrating tube method

COC(=O)OC [dimethyl carbonate] + CCCO
mass density [kg/m3]
Conditions | 100 kPa | 5000 kPa | 10000 kPa | 15000 kPa | 20000 kPa | 25000 kPa | 30000 kPa | 35000 kPa | 40000 kPa
288.15 K, x1 = 0.0273 | 815.28 | 819.04 | 822.48 | 825.78 | 829.15 | 832.17 | 835.17 | 838.02 | 840.76
288.15 K, x1 = 0.0506 | 821.93 | 825.69 | 829.18 | 832.53 | 835.9 | 838.98 | 842.03 | 844.93 | 847.68
288.15 K, x1 = 0.0755 | 829.07 | 832.88 | 836.37 | 839.78 | 843.2 | 846.28 | 849.38 | 852.29 | 855.09
288.15 K, x1 = 0.1007 | 836.26 | 840.08 | 843.62 | 847.03 | 850.45 | 853.58 | 856.69 | 859.6 | 862.4
288.15 K, x1 = 0.1495 | 850.12 | 853.99 | 857.54 | 861.01 | 864.47 | 867.61 | 870.78 | 873.75 | 876.61
288.15 K, x1 = 0.2003 | 864.44 | 868.36 | 871.96 | 875.5 | 879 | 882.15 | 885.32 | 888.35 | 891.27
288.15 K, x1 = 0.2529 | 879.11 | 883.04 | 886.7 | 890.29 | 893.84 | 897.05 | 900.28 | 903.32 | 906.24
288.15 K, x1 = 0.2993 | 891.99 | 895.97 | 899.68 | 903.29 | 906.83 | 910.1 | 913.34 | 916.38 | 919.36
288.15 K, x1 = 0.3497 | 905.81 | 909.85 | 913.56 | 917.23 | 920.81 | 924.09 | 927.39 | 930.49 | 933.52
288.15 K, x1 = 0.401 | 919.74 | 923.79 | 927.61 | 931.33 | 934.96 | 938.25 | 941.6 | 944.76 | 947.8
288.15 K, x1 = 0.4509 | 933.25 | 937.3 | 941.17 | 944.96 | 948.59 | 951.93 | 955.29 | 958.51 | 961.56
288.15 K, x1 = 0.5002 | 946.47 | 950.58 | 954.46 | 958.3 | 961.98 | 965.33 | 968.75 | 971.97 | 975.08
288.15 K, x1 = 0.5498 | 959.76 | 963.88 | 967.81 | 971.66 | 975.38 | 978.79 | 982.22 | 985.5 | 988.61
288.15 K, x1 = 0.5996 | 973.01 | 977.19 | 981.12 | 984.99 | 988.75 | 992.17 | 995.65 | 998.94 | 1002.11
288.15 K, x1 = 0.6499 | 986.28 | 990.51 | 994.5 | 998.42 | 1002.18 | 1005.66 | 1009.15 | 1012.45 | 1015.62
288.15 K, x1 = 0.7006 | 999.56 | 1003.79 | 1007.79 | 1011.77 | 1015.53 | 1019.07 | 1022.61 | 1025.92 | 1029.15
288.15 K, x1 = 0.7471 | 1011.61 | 1015.85 | 1019.9 | 1023.94 | 1027.7 | 1031.24 | 1034.8 | 1038.16 | 1041.39
288.15 K, x1 = 0.7989 | 1025.02 | 1029.31 | 1033.41 | 1037.52 | 1041.32 | 1044.87 | 1048.43 | 1051.8 | 1055.05
288.15 K, x1 = 0.8491 | 1038.04 | 1042.34 | 1046.44 | 1050.56 | 1054.41 | 1057.97 | 1061.59 | 1065.02 | 1068.31
288.15 K, x1 = 0.8993 | 1051.07 | 1055.38 | 1059.54 | 1063.72 | 1067.56 | 1071.18 | 1074.81 | 1078.24 | 1081.55
288.15 K, x1 = 0.9249 | 1057.64 | 1061.95 | 1066.12 | 1070.3 | 1074.14 | 1077.81 | 1081.44 | 1084.88 | 1088.19
288.15 K, x1 = 0.9489 | 1063.77 | 1068.08 | 1072.25 | 1076.44 | 1080.27 | 1083.9 | 1087.54 | 1091.03 | 1094.34
288.15 K, x1 = 0.9743 | 1070.25 | 1074.61 | 1078.78 | 1082.98 | 1086.81 | 1090.45 | 1094.08 | 1097.53 | 1100.84
288.15 K, x1 = 1 | 1076.83 | 1081.15 | 1085.32 | 1089.52 | 1093.35 | 1096.99 | 1100.63 | 1104.08 | 1107.4
293.15 K, x1 = 0.0273 | 811.13 | 814.85 | 818.47 | – | – | – | – | – | –
293.15 K, x1 = 0.0506 | 817.67 | 821.44 | 825.06 | – | – | – | – | – | –
293.15 K, x1 = 0.0755 | 824.75 | 828.52 | 832.19 | – | – | – | – | – | –
293.15 K, x1 = 0.1007 | 831.84 | 835.66 | 839.38 | – | – | – | – | – | –
293.15 K, x1 = 0.1495 | 845.58 | 849.45 | 853.18 | – | – | – | – | – | –
293.15 K, x1 = 0.2003 | 859.73 | 863.66 | 867.43 | – | – | – | – | – | –
293.15 K, x1 = 0.2529 | 874.29 | 878.27 | – | – | – | – | – | – | –
293.15 K, x1 = 0.2993 | 887.05 | 891.08 | – | – | – | – | – | – | –
293.15 K, x1 = 0.3497 | 900.71 | 904.78 | – | – | – | – | – | – | –
293.15 K, x1 = 0.401 | 914.47 | 918.61 | – | – | – | – | – | – | –
293.15 K, x1 = 0.4509 | 927.86 | 932.05 | – | – | – | – | – | – | –
293.15 K, x1 = 0.5002 | 940.97 | 945.21 | – | – | – | – | – | – | –
293.15 K, x1 = 0.5498 | 954.1 | 958.38 | – | – | – | – | – | – | –
293.15 K, x1 = 0.5996 | 967.18 | 971.52 | – | – | – | – | – | – | –
293.15 K, x1 = 0.6499 | 980.33 | 984.67 | – | – | – | – | – | – | –
293.15 K, x1 = 0.7006 | 993.49 | 997.89 | – | – | – | – | – | – | –
293.15 K, x1 = 0.7471 | 1005.43 | 1009.83 | – | – | – | – | – | – | –
293.15 K, x1 = 0.7989 | 1018.72 | 1023.17 | – | – | – | – | – | – | –
293.15 K, x1 = 0.8491 | 1031.57 | 1036.07 | – | – | – | – | – | – | –
293.15 K, x1 = 0.8993 | 1044.49 | 1049.04 | – | – | – | – | – | – | –
293.15 K, x1 = 0.9249 | 1051 | 1055.55 | – | – | – | – | – | – | –
293.15 K, x1 = 0.9489 | 1057.07 | 1061.62 | – | – | – | – | – | – | –
293.15 K, x1 = 0.9743 | 1063.49 | 1068.04 | – | – | – | – | – | – | –
293.15 K, x1 = 1 | 1070.06 | 1074.62 | – | – | – | – | – | – | –

From the NIST ThermoML archive (doi:10.1016/j.jct.2019.02.011)
